± gives the expanded uncertainty stated by the source.
How the values were obtained:
[1] = Molar enthalpy of transition or fusion; settings: Crystal; DSC
[2] = Crystal; DTA

| Molar enthalpy of transition or fusion [1] | Normal melting temperature [2] | SMILES |
| --- | --- | --- |
| 6.86 ± 0.311 kcal/mol | 31.10 ± 4 °C | CCCCCCCCCC(=O)O [decanoic acid] |
| 15.1 ± 0.669 kcal/mol | 69.00 ± 4 °C | CCCCCCCCCCCCCCCCCC(=O)O [octadecanoic acid] |
| 10.2 ± 0.454 kcal/mol | 53.70 ± 4 °C | CCCCCCCCCCCCCC(=O)O [tetradecanoic acid] |
